The text below walks through data of patent US20220177462A1, “SUBSTITUTED HETEROCYCLIC AMIDE COMPOUND AND PREPARATION METHOD THEREFOR AND PHARMACEUTICAL USE THEREOF” (GENFLEET THERAPEUTICS (SHANGHAI) INC., priority 2019, published 2022).

Structures are written as SMILES.

One test relates to U937 cells. Description: Inhibitory activity against programmed necroptosis of U937 cells induced by TNF-α. The test is classed as cell-based, human. The conditions noted are these: Homo sapiens, U-937, 48 h, 100 ng/ml human TNF-α and 25 μM Q-VD-Oph, 48 hours, CellTiter-Glo survival rate; read-out: U937 IC50. Here is the method: The U937 cell strain which was used in the following Testing Examples was derived from ATCC, No.: CRL-1593.2, batch No.: 63479999, culture medium: RPMI-1640+10% FBS.
The compound was dissolved in DMSO to prepare a 10 mM stock solution. The stock solution was diluted in 3.16 folds with DMSO to a series of gradient concentrations. Then, the resultant solution was diluted in 250 folds with a culture medium to prepare a working solution. The U937 cells were inoculated in a 384-well plate at 5000/well. The compound at respective concentration was added to each of the cells, and was mixed with the cells homogeneously. 100 ng/ml human TNF-α and 25 μM Q-VD-Oph were added simultaneously to induce programmed necroptosis of the cells. The final concentration of DMSO was 2%. The cells were placed in the incubator at 37° C. and 5% CO2 for further culture of 48 hours. Celltiter-Glo reagent was used for detection. After adequate pyrolysis reaction, the chemiluminescence readout value was recorded by a microplate reader. The survival rate was calculated from the detection results using the equation as follows: SR (%)=(RLU compound−RLU blank)/(RLU high control−RLU blank)×100%. The survival rate was plotted against the final concentration of respective compound using a 4-parameter fitting to calculate the inhibitory IC50 of the compound against programmed necroptosis of cells induced by TNF-a.

Another test has as its system L929 cells. Kind of test: Inhibitory activity against programmed necroptosis of L929 cells induced by TNF-α. The conditions noted are these: Mus musculus, 30 ng/ml murine TNF-α and 15 μM Z-VAD, 6 hours, CellTiter-Glo survival rate, read-out: L929 AbIC50. The test is classed as cell-based. The method, then:
The compound was dissolve in DMSO to prepare a 10 mM stock solution. The stock solution was diluted in 3.16 folds with DMSO to a series of gradient concentrations. Then, the resultant solution was diluted in 100 folds with a culture medium to prepare a working solution. The L929 cells were inoculated in a 384-well plate at 10000/well. The compound at respective concentration was added to each of the wells, and was mixed with the cells homogeneously. 30 ng/ml murine TNF-α and 15 μM Z-VAD were added simultaneously to induce programmed necroptosis of the cells. The final concentration of DMSO was 2%. The cells were placed in an incubator at 37° C. and 5% CO2 for further culture of 6 hours. CellTiter-Glo reagent was used for detection. After adequate pyrolysis reaction, the chemiluminescence readout value was recorded by a microplate reader. The survival rate was calculated from the detection results using the equation as follows: SR (%)=(RLU compound −RLU blank)/(RLU high control−RLU blank)×100%. The survival rate was plotted against the final concentration of respective compound using a 4-parameter fitting to calculate the inhibitory IC50 of the compound against programmed necroptosis of cells induced by TNF-a.
On the technique in general: Cellular ATP, detected with luciferase, serves as a proxy for viable cell number.

The next test has as its target T1, RIPK1 enzyme (Homo sapiens, UniProt Q13546).
T1 construct: purchased Eurofins 16-022
T1 sequence (Q13546 1-671): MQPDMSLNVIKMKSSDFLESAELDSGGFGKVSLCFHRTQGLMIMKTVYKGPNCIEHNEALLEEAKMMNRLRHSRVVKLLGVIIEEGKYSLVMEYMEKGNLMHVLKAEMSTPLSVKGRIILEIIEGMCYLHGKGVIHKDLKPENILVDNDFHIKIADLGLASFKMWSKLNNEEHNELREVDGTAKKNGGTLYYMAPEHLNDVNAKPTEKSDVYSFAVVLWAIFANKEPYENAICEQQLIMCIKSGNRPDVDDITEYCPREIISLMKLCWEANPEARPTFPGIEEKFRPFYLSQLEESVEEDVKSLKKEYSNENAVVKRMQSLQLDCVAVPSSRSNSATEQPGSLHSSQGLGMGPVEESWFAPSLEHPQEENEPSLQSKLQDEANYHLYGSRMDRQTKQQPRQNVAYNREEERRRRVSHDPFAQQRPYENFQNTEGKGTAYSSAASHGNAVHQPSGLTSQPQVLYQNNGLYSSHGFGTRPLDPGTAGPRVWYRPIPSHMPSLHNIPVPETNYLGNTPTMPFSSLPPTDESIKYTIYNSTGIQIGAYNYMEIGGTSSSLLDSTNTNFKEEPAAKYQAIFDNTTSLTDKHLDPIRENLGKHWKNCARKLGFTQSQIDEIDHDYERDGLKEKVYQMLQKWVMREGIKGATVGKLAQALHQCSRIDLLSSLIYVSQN
Kind of test: Inhibitory activity of the compounds against RIPK1 enzyme (33P-ATP, MBP substrate). The test is classed as biochemical. The note with it: 36 nM RIPK1, 0.33 mg/ml MBP, 155 μM P33-labeled ATP, room temperature 2 hours. The method, then:
The test compound was dissolved in DMSO to prepare a 10 mM stock solution. The stock solution was diluted in 3.16 folds with DMSO to a series of gradient concentrations. Then, the resultant solution was diluted in 50 folds with MOPS buffer pH 7.0 to prepare a working solution. The working solution was mixed with 36 nM RIPK1 (final concentration) and 0.33 mg/ml substrate MBP homogeneously. Thereafter, 10 mM magnesium ion and 155 μM P^33 isotopically labeled ATP were added for the reaction. The final concentration of DMSO was 2%. After the reaction was carried out at room temperature for 2 hours phosphoric acid was added to terminate the reaction. The final reaction system was tested using a liquid scintillation counter after treatment. The result obtained by subtracting a blank control from the tested value was converted to activity percentage as compared to the readout value of control group. The activity percentage was plotted against the final concentration of respective compound using a 4-parameter fitting to obtain the inhibitory IC50 of the compound against RIPK1 enzyme.

Regarding `Nc1nc2ccc(-c3cnc4c(c3)C(=O)N(Cc3cc(F)cc(F)c3OC3CC3)CC4)cc2s1` [Compound Z64, 3-(2-aminobenzo[d]thiazol-6-yl)-6-(2-cyclopropoxy-3,5-difluorobenzyl)-7,8-dihydro-1,6-naphthyridin-5(6H)-one], the IC50 in the test on U937 cells came out at 4 nM; in the test on L929 cells, 3 nM; against RIPK1 enzyme, 34 nM.
